Literature values in PMC13566764 (International Journal of Molecular Sciences, 2026).

Design: method as in https://pubchem.ncbi.nlm.nih.gov
Conditions: ref https://pubchem.ncbi.nlm.nih.gov

pKa: 8.33
SMILES: O=C1NC(=O)C(c2ccccc2)(c2ccccc2)N1 [Phenytoin, phenytoin]
